# Reference: PMC4650696, “Novel anti-thrombotic agent for modulation of protein disulfide isomerase family member ERp57 for prophylactic therapy” (Scientific Reports, 2015)
# Tests used:
# ERp72 [1] = target: T1, ERp72 (Rattus norvegicus, UniProt P38659); assay: NeutrAvidin pull-down from platelet lysate, LC-MS/MS and immunoblot, competed by excess ADTM; assay type: cell-based
# T1 construct: gene Pdia4; endogenous, rat platelet lysate
# T1 sequence (P38659 21-643): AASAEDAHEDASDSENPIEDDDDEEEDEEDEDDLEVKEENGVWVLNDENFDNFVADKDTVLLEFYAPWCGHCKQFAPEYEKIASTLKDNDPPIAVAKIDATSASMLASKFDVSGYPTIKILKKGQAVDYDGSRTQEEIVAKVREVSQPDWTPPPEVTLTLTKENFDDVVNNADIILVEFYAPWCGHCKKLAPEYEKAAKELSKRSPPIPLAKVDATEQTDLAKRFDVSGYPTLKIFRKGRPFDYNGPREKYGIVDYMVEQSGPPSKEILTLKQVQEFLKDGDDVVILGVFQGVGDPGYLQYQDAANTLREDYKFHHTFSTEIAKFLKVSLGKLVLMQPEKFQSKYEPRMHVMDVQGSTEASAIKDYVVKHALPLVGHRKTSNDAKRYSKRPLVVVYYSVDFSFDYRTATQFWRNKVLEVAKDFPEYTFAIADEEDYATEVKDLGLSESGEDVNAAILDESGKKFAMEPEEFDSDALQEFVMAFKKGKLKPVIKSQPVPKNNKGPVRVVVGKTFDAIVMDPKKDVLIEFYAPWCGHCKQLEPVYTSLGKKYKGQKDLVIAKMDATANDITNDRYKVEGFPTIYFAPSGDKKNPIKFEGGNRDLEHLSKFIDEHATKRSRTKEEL
# ERp5 [2] = target: T2, ERp5 (Rattus norvegicus, UniProt Q63081); assay: as above; assay type: cell-based
# T2 construct: gene Pdia6; endogenous, rat platelet lysate
# T2 sequence (Q63081 20-440): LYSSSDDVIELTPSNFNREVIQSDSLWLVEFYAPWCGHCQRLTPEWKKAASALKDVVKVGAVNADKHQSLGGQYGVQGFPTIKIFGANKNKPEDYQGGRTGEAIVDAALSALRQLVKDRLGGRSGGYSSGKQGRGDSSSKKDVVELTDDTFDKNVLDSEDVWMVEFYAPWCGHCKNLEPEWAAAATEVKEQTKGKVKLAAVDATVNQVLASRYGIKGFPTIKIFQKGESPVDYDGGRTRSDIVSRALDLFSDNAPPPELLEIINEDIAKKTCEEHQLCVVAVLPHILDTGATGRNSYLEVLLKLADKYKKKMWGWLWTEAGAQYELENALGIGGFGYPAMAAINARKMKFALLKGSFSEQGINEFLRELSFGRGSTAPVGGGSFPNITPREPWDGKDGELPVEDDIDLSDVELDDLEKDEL
# ERp57 [3] = target: T3, ERp57 (Rattus norvegicus, UniProt P11598); assay: as above; assay type: cell-based
# T3 construct: gene Pdia3; endogenous, rat platelet lysate
# T3 sequence (P11598 25-505): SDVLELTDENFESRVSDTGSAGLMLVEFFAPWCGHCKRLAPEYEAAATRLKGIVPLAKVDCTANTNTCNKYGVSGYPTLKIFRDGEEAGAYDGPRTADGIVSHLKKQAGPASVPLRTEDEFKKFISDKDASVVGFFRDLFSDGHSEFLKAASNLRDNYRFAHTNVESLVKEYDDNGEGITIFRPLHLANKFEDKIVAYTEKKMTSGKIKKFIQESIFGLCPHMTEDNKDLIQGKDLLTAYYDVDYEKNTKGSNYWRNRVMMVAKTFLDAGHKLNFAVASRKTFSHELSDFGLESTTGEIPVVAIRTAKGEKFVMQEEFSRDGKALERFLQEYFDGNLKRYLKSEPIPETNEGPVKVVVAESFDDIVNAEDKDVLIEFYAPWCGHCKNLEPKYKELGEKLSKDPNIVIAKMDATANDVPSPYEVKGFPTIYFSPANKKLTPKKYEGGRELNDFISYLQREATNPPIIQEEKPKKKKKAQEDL
# ERp5 [4] = target: T2, ERp5; assay: competition of BAA pull-down by excess untagged ADTM, immunoblot; […] inhibition of ERp5 activity at […]; assay type: cell-based
# ERp57 [5] = target: T4, ERp57 (Homo sapiens, UniProt P30101); assay: insulin reduction turbidity assay with recombinant ERp57; irreversible after dilution; also competes with BAA in rat platelet lysate pull-down; assay type: biochemical
# T4 construct: gene PDIA3; human recombinant ERp57
# T4 sequence (P30101 25-505): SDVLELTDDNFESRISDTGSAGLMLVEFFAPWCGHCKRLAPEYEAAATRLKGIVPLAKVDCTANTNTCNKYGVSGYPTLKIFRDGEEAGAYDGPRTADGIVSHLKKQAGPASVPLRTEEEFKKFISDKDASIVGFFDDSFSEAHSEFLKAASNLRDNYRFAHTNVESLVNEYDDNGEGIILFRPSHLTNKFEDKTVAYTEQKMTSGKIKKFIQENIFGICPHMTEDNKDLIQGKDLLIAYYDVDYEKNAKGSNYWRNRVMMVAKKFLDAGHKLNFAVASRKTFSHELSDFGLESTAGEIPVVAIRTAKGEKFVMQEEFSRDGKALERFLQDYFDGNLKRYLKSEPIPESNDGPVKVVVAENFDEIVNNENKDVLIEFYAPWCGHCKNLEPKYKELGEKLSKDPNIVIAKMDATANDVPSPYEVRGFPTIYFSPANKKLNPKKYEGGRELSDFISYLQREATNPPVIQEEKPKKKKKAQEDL
# ERp72 [6] = target: T1, ERp72; assay: competition of BAA pull-down by excess untagged ADTM, immunoblot; only […] inhibition of recombinant ERp72 at […]; assay type: cell-based
# PDI = target: T5, PDI (Homo sapiens, UniProt P07237); assay: insulin reduction turbidity assay with recombinant PDI (weak); assay type: biochemical
# T5 construct: gene P4HB; recombinant PDI
# T5 sequence (P07237 18-508): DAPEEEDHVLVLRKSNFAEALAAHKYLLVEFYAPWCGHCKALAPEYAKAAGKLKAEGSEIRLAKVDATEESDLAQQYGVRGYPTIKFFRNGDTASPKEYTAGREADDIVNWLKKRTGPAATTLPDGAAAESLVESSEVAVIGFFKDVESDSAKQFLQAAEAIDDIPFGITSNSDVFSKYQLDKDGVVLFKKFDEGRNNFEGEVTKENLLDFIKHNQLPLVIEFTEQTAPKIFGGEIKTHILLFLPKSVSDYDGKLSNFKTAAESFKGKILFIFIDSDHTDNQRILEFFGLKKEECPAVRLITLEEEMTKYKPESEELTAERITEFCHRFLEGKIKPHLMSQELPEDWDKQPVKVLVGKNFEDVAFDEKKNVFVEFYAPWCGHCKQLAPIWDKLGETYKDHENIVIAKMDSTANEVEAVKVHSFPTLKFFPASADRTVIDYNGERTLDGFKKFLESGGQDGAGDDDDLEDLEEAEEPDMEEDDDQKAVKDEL
inhibition at 300 µM (ERp5 [4]),IC50 (ERp57 [5]),inhibition at 300 µM (ERp72 [6]),inhibition at 300 µM (PDI),Structure (SMILES),"NeutrAvidin pull-down from platelet lysate, LC-MS/MS and immunoblot, competed by (ERp72 [1])","NeutrAvidin pull-down from platelet lysate, LC-MS/MS and immunoblot, competed by (ERp5 [2])","NeutrAvidin pull-down from platelet lysate, LC-MS/MS and immunoblot, competed by (ERp57 [3])"
,,,,O=C1N[C@H]2[C@H](CS[C@H]2CCCCC(=O)O[C@H](Cc2ccc(O)c(O)c2)C(=O)OCc2ccccc2)N1 [BAA],"We confirmed the identity of the pulled-down proteins as ERp72, ERp57 and ERp5 with their respective antibodies","We confirmed the identity of the pulled-down proteins as ERp72, ERp57 and ERp5 with their respective antibodies","specificity of the binding between BAA and these targets (ERp72, ERp57 and ERp5) could be demonstrated by the competition"
38%,100 to 300 µM,18%,30%,CC(=O)Oc1ccc(C[C@@H](OC(C)=O)C(=O)OCc2nc(C)c(C)nc2C)cc1OC(C)=O [ADTM],,,
